Data published in patent US20250144109A1, “Compositions for preventing or treating pulmonary arterial hypertension” (CHONG KUN DANG PHARMACEUTICAL CORP., priority 2022, published 2025).

Assays:
[1] = test system: HPASMC (human pulmonary artery smooth muscle) cells; test: Cell proliferation inhibition (CCK-8) in TGF-β stimulated HPASMC cells; assay type: cell-based; conditions: 1 μM drug with TGF-β 10 ng/ml, 24 hours, vs TGF-β only, FIG. 3
Procedure: TGF-β stimulation to HPASMC (human pulmonary artery smooth muscle) cells, which are a model of pulmonary arterial hypertension disease, and a cell proliferation inhibition rate according to treatment with six compounds of Synthesis Examples 1 to 6 were confirmed through cell viability measurement.
HPASMC (5.0×10^3 cells/well) cells were seeded in 96-well plate, and cultured for 24 hours in a serum free medium as starvation. 1 μM concentration of drugs (compounds 43, 295, 296, 40, 239, 285) were simultaneously treated with TGF-β (10 ng/ml) and cultured for 24 hours, after which cell viability was measured through CCK-8 assay, and the results thereof are shown in FIG. 3. In above FIG. 3, a control group indicates cells not treated with TGF-β and the compounds of Synthesis Examples, and “-” indicates cells treated only with TGF-β.

[2] = test system: tubulin acetylation in HPAEC (Human pulmonary artery endothelial cells); test: Tubulin acetylation in HPAEC by Western blot (anti-acetyl tubulin); assay type: cell-based; conditions: 4 hours at 37° C., concentration 0.1μ, FIG. 1
Procedure: HPAEC (3.0×10^5 cells/well, Human pulmonary artery endothelial cells) pulmonary artery endothelial cells were seeded in a six-well plate, and then treated with drugs (compounds 43, 295, 296, 40, 239, and 285) at each concentration. In four hours later at 37° C., proteins were extracted with lysis buffer and quantified by Bradford method. 5 μg of proteins were dissolved in sample buffer, subjected to electrophoresis on 4-12% gradient gel, transferred to a nitrocellulose membrane for seven minutes, and blocked in a 3% BSA solution for one hour. Anti-acetyl tubulin (1:1,000) and GAPDH (1:2,000) were added to the 3% BSA solution, after which the membrane was immersed therein and reacted at 4° C. for 10 hours, and then washed three times with 1×TBST for 10 minutes, respectively. IgG-HRP antibody (1:5,000) was added to 5% BSA, after which the membrane was immersed therein and reacted at room temperature for one hour, and then washed three times with 1×TBST for 10 minutes, respectively. In above FIG. 1, a control group indicates cells not treated with the compounds of Synthesis Examples.

HPAEC cells = test: Cell viability (CCK-8) of TGF-β stimulated HPAEC cells; assay type: cell-based, Human; conditions: 1 μM drug with TGF-β 10 ng/ml, 48 hours, vs TGF-β only, FIG. 2
Procedure: TGF-β stimulation to HPAEC cells, which are a model of pulmonary arterial hypertension disease, and the survival rate according to the compounds of Synthesis Examples 1 to 6 were confirmed through cell viability measurement.
HPAEC (2.0×10^3 cells/well) cells were seeded in 96-well plate, and cultured for 24 hours in a serum free medium as starvation. 1 μM concentration of drugs (compounds 43, 295, 296, 40, 239, 285) were simultaneously treated with TGF-β (10 ng/ml) and cultured for 48 hours, after which cell viability was measured through CCK-8 assay, and the results thereof are shown in FIG. 2. In above FIG. 2, a control group indicates cells not treated with TGF-β and the compounds of Synthesis Examples, and “-” indicates cells treated only with TGF-β.

[3] = test system: SD rats with monocrotaline (MCT)-induced pulmonary arterial hypertension; test: MCT-induced pulmonary arterial hypertension animal model (survival, lung and ventricle weights, ECG); assay type: in vivo, rat; conditions: 20 mg/kg oral twice a day
Procedure: SD rats having the following conditions were prepared.
Rats, experimental animals, were divided into groups as follows in consideration of a body weight on the day before drug administration began.
During a test period, the normal group was dosed with saline, and the control group (MCT+Vehicle) was subcutaneously dosed with a monocrotaline (MCT) aqueous solution once at 3 ml/Kg, and then dosed with a vehicle consisting of a mixed solution of cremophor EL, ethanol, and saline at a volume ratio of 1:1:8. A MCT aqueous solution was prepared to reach a concentration of 20 mg/mL in a solvent adjusted to pH 7.4 using a 1 N NAOH solution in 1 N HCL. After that, subcutaneous administration was performed by adjusting to […].
The drug administration group was first subcutaneously dosed with the MCT aqueous solution at 3 ml/Kg once, and then orally dosed with compound 43 (the compound of Synthesis Example 1) at 20 mg/Kg twice a day during the test period (four weeks). The compound 43 was dissolved in a mixed solution of cremophor EL, ethanol, and saline at a volume ratio of 1:1:8, and then orally administered.
All data were expressed as mean±standard error, and each group and the control group were compared using an unpaired T test (p<0.05) to determine the effect of each experimental group.
After group separation and then administration of the MCT aqueous solution, the survival rate was evaluated by confirming a dead individual during the test period.
The individual survival rate was calculated by reflecting the number of animals surviving in the corresponding week from the first 10 animals participating in the experiment for each group. Each number on the left side of the line graph means an individual survival rate % (number of surviving individuals/total number of animals participating in experiment).
After four weeks of the test period, the lung and the heart were removed to measure the weight of the lung and the weight of left ventricle and right ventricle in each group, and the results are shown in FIGS. 5 and 6.
After four weeks of the test period, the animal was subjected to inhalation anesthesia with isoflurane, and electrodes were attached to the limbs to measure the animal's electrocardiogram for more than 30 seconds. The result was measured using a Bio Amp ECG meter and analysis was performed using LabChart 8 software.

[4] = MCT rats, after four weeks, vs control group

SMILES	proliferation rate after TGF-β stimulation [1]	tubulin acetylation (acetyl tubulin expression level) [2]	survival rate (cell viability) after TGF-β stimulation (HPAEC cells)	individual survival rate ([3]; MCT 50 mg/kg s.c. once, four weeks, vehicle control 50%, FIG. 4) [%]	JT interval (ECG) [3, 4]	QT interval (ECG) [3, 4]	QTc (ECG) [3, 4]	ratio of right ventricle weight to left ventricle weight ([3]; MCT rats, after four weeks, vs control group, FIG. 6)
O=C(N1CCS(=O)(=O)CC1)N(Cc1ccc(-c2nnc(C(F)F)o2)cn1)c1ccc(F)cc1 [Compound 295, N-((5-(5-(difluoromethyl)-1,3,4-oxadiazol-2-yl)pyridin-2-yl)methyl)-N-(4-fluorophenyl)thiomorpholine-4-carboxamide 1,1-dioxide]	inhibited	tubulin acetylation was expressed	improved					
O=C(N1CCS(=O)(=O)CC1)N(Cc1ccc(-c2nnc(C(F)F)o2)cc1F)c1ccccc1 [Compound 40, N-(4-(5-(difluoromethyl)-1,3,4-oxadiazol-2-yl)-2-fluorobenzyl)-N-phenylthiomorpholine-4-carboxamide 1,1-dioxide]	inhibited	tubulin acetylation was expressed	improved					
O=C(N1CCS(=O)(=O)CC1)N(Cc1ccc(-c2nnc(C(F)F)o2)cn1)c1cccc(Cl)c1 [Compound 239, N-(3-chlorophenyl)-N-((5-(5-(difluoromethyl)-1,3,4-oxadiazol-2-yl)pyridin-2-yl)methyl)thiomorpholine-4-carboxamide 1,1-dioxide]	inhibited	tubulin acetylation was expressed	improved					
O=C(N1CCS(=O)(=O)CC1)N(Cc1ccc(-c2nnc(C(F)F)o2)cn1)c1ccccc1 [Compound 43, N-((5-(5-(difluoromethyl)-1,3,4-oxadiazol-2-yl)pyridin-2-yl)methyl)-N-phenylthiomorpholine-4-carboxamide 1,1-dioxide]	inhibited	tubulin acetylation was expressed	improved	90	significantly reduced	significantly reduced	significantly reduced	significantly reduced
O=C(N1CCS(=O)(=O)CC1)N(Cc1ccc(-c2nnc(C(F)F)o2)cn1)c1cccc(F)c1 [Compound 296, N-((5-(5-(difluoromethyl)-1,3,4-oxadiazol-2-yl)pyridin-2-yl)methyl)-N-(3-fluorophenyl)thiomorpholine-4-carboxamide 1,1-dioxide]	inhibited	tubulin acetylation was expressed	improved					
O=C(N1CCS(=O)(=O)CC1)N(Cc1ccc(-c2nnc(C(F)F)o2)cc1F)c1ccc(F)cc1 [Compound 285, N-(4-(5-(difluoromethyl)-1,3,4-oxadiazol-2-yl)-2-fluorobenzyl)-N-(4-fluorophenyl)thiomorpholine-4-carboxamide 1,1-dioxide]	inhibited	tubulin acetylation was expressed	improved					
